From ChEMBL document CHEMBL1146954, “Design and synthesis of 7H-pyrrolo[2,3-d]pyrimidines as focal adhesion kinase inhibitors. Part 1” (Bioorg Med Chem Lett, 2006) come the findings set out here.

In this experiment the target is Focal adhesion kinase 1 (Homo sapiens, UniProt Q05397). As to the kind of experiment: Inhibitory activity against FAK.
Focal adhesion kinase 1, sequence (Q05397 whole entry): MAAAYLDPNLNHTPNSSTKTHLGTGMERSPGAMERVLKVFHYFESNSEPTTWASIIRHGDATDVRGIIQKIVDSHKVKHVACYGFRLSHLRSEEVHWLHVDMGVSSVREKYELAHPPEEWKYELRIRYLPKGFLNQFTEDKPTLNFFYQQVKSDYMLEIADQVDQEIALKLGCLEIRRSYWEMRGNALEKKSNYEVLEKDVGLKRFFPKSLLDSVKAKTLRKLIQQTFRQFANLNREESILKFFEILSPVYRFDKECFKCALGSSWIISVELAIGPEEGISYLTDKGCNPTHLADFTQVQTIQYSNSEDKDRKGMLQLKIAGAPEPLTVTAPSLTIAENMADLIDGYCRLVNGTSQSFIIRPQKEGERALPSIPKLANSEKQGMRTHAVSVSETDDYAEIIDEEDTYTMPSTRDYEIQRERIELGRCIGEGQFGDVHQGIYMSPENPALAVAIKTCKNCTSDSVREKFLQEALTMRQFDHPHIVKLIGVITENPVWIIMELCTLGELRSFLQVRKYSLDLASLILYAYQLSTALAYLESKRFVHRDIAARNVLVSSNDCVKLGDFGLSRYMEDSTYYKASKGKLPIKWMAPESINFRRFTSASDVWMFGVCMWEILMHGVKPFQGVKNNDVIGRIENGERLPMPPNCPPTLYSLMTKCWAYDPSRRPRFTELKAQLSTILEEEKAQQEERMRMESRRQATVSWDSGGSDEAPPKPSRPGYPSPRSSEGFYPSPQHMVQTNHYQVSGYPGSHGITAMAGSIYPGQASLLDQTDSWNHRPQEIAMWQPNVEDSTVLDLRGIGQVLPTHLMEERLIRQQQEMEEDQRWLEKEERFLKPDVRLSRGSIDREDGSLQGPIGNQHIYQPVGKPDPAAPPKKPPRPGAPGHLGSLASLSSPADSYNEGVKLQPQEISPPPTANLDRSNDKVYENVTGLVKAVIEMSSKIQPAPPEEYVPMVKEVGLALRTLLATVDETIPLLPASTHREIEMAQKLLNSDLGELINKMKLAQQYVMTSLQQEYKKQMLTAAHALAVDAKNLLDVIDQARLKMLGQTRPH

A word on the IC50: it is the midpoint of a concentration-inhibition curve. Turning to `COc1cc(Nc2ncc3ccn(-c4ccccn4)c3n2)cc(OC)c1OC`, the IC50 worked out at 200 nM.
The figure for `COc1cc(Nc2ncc(Br)c(Nc3ccccn3)n2)cc(OC)c1OC` is 100 nM.
